According to US20200386744A1, “NOVEL SCREENING METHOD FOR TGF-BETA INHIBITOR” (The Doshisha, priority 2017, published 2020):
Where a name gives a salt, the structure may show the parent alone. Read-outs that look alike come from different tables or passages of the source.

Assays:
[1] = system: immortalized Fuchs' endothelial corneal dystrophy cells (iFECD); experiment: Caspase 3/7 activity (Caspase-Glo 3/7 Assay) in iFECD under TGF-β2 stimulation, primary and secondary screening; format: cell-based, human; conditions: for activity at 10 µM: Homo sapiens
Protocol: 7×10^3 immortalized Fuchs' endothelial corneal dystrophy cells were seeded on a 96-well plate and were cultured for 24 hours under the condition of 5% CO2 at 37° C. Dulbecco's Modified Eagle Medium (DMEM) (nacalai tesque, 26252-94)+10% FBS (Biological Industries/04-001-1A)+1% penicillin-streptomycin (nacalai tesque, 26252-94) was used as the medium. Next, TGF-β2 (manufacturer: R&D Systems, Inc., distributor: Wako Pure Chemical Industries, Ltd./manufacturer codes 302-B2-002, 302-B2-010, distributor codes: 553-62881, 559-62883) (5 ng/mL) alone, or both TGF-β2 (5 ng/mL) and each agent of SCREEN-WELL® FDA Approved Drug Library V2, Japan version (10 μM) were added. After 28 hours under the condition of 5% CO2 at 37° C., cell morphology was observed using a phase difference microscope. Caspase 3/7 activity was then measured using Caspase-Glo 3/7 Assay (Promega, #G8091). DMEM+2% FBS+1% P/S was used as the medium. Caspase 3/7 activity and cell viability in this example were measured using Veritas™ Microplate Luminometer. Such a device enables many samples to be simultaneously measured.
The control group was supplemented with a solvent of each reagent, i.e., DMSO (Dimethyl Sulfoxide, Sterile-filtered) (nacalai tesque, 13408-64). Further, Z-VD-FMK (isomer mixture) (Wako Pure Chemical Industries, Ltd./262-02061) (10 μM), which is a caspase inhibitor, was used as the positive control. In the primary screening, measurement of Caspase 3/7 activity was carried out with n=2. […] Caspase activity was measured after being cultured in Dulbecco's Modified Eagle Medium (DMEM)+2% fetal bovine serum (FBS)+1% penicillin/streptomycin (P/S) for 28 hours.
Measurement was carried out with n=2 as the primary screening and a TGF-β2 (5 ng/mL) supplemented group was set as 100%. […] (1) and (2) of the control group, TGF-β2 (5 ng/mL) supplemented group, TGF-β2 (5 ng/mL)+Z-VD-FMK supplemented group (10 μM) are n=5 in total.
Evaluation of Caspase 3/7 activity was carried out with n=5 in the secondary screening.

[2] = system: immortalized Fuchs' endothelial corneal dystrophy cells (iFECD); experiment: Cell viability (CellTiter-Glo Luminescent Cell Viability Assay) in iFECD, secondary screening; format: cell-based, human; conditions: agent 10 μM, absence of TGF-β; for Secondary screening Viable cell number (%): 28 hours, n=2, vs candidate compound non-contacted group
Protocol: In one embodiment, step (b) comprises measurement of cell viability. […] The cell viability is measured in the absence of TGF-β. […] The threshold value of the cell viability may be about 80%, about 85%, about 90%, about 95%, about 98%, about 99%, about 100%. […] Thus, a drug can be accurately selected by measuring cell number in addition to measuring caspase activity. Although the compounds shown in Table 2 appeared to be suppressing caspase activity, the compounds had strong toxicity, wherein cell viability went below 90%, and were thereby removed in the secondary screening.
Cell viability is calculated as an indicator of toxicity with n=2 in CellTiter-Glo® Luminescent Cell Viability Assay (Promega catalogue number: G7570). The cell viability was measured after culturing the cells in Dulbecco's Modified Eagle Medium (DMEM)+2% fetal bovine serum (FBS)+1% penicillin/streptomycin (P/S) for 28 hours. The cell viability was measured in the absence of TGF-β. When the cell viability was below 90%, the cells were removed from ranking.

[3] = 28 h, secondary screening Caspase 3/7 activity divided by cell viability, read-out: Caspase 3/7 activity/Viable cell number (%)
[4] = TGF-β2 5 ng/mL + agent 10 μM, 28 hours, n=2, TGF-β2 supplemented group set as 100%, read-out: Primary screening Caspase 3/7 activity (%)
[5] = TGF-β2 5 ng/mL + agent 10 μM, 28 hours, n=5, vs candidate compound non-contacted group, read-out: Secondary screening Caspase 3/7 activity (%)

Structure (SMILES) | Primary screening Caspase 3/7 activity (%) ([1]; TGF-β2 5 ng/mL + agent 10 μM, 28 hours, n=2, TGF-β2 supplemented group set as 100%) | Secondary screening Caspase 3/7 activity (%) ([1]; TGF-β2 5 ng/mL + agent 10 μM, 28 hours, n=5, vs candidate compound non-contacted group) | Caspase 3/7 activity/Viable cell number (%) ([1]; secondary screening Caspase 3/7 activity divided by cell viability) | Cell viability class mark (before Viable cell number) [2] | Secondary screening Viable cell number (%) [2] | activity at 10 µM [1, 3] | activity at 10 µM [1, 4] | activity at 10 µM [1, 5]
CCCC(=O)Nc1ccc(OCC(O)CNC(C)C)c(C(C)=O)c1.Cl (stereo not shown) [Acebutolol•HCl] | 74.30% | 88.05% | 88.25% | ∘ (90% or more cell viability) | 99.77% | – | – | –
CN1CC2c3ccccc3Oc3ccc(Cl)cc3C2C1 (stereo not shown) [Asenapine Maleate] | – | – | – | ∘ (90% or more cell viability) | 101.64% | 87.4% | 72.8% | 88.8%
COc1ccccc1OCCNCC(O)COc1cccc2[nH]c3ccccc3c12 (stereo not shown) [Carvedilol] | – | – | – | x (less than 90% cell viability) | 89.1% | 71.9% | 50.3% | 64.1%
O=C(O)c1ccc(-n2nc(-c3ccccc3O)nc2-c2ccccc2O)cc1 [Deferasirox] | – | – | – | x (less than 90% cell viability) | 56.04% | 68.9% | 50% | 38.6%
N#Cc1ccc(C(c2ccc(C#N)cc2)n2cncn2)cc1 [Letrozole] | – | – | – | ∘ (90% or more cell viability) | 101.3% | 102% | 71.2% | 104%
Cc1[nH]c(=O)c(C#N)cc1-c1ccncc1 [Milrinone] | – | – | – | ∘ (90% or more cell viability) | 99.67% | 95.2% | 62.5% | 94.9%
COc1c(C)c2c(c(O)c1C/C=C(\C)CCC(=O)OCCN1CCOCC1)C(=O)OC2 [Mycophenolate Mofetil] | – | – | – | x (less than 90% cell viability) | 67.7% | 70.4% | 46.4% | 47.6%
CC(=O)Oc1ccccc1C(=O)Nc1ncc([N+](=O)[O-])s1 [Nitazoxanide] | – | – | – | x (less than 90% cell viability) | 87.81% | 49.3% | 36.5% | 43.3%
CC[C@@H]1/C=C(\C)C[C@H](C)C[C@H](OC)[C@H]2O[C@@](O)(C(=O)C(=O)N3CCCC[C@H]3C(=O)O[C@H](/C(C)=C/[C@@H]3CC[C@H](Cl)[C@H](OC)C3)[C@H](C)[C@@H](O)CC1=O)[C@H](C)C[C@@H]2OC [Pimecrolimus] | – | – | – | x (less than 90% cell viability) | 84.64% | 62.6% | 70.1% | 53%
COc1cc(NC(C)CCCN)c2ncccc2c1 (stereo not shown) [Primaquine Phosphate] | – | – | – | ∘ (90% or more cell viability) | 99.7% | – | – | –
CN(C)[C@@H]1C(O)=C(C(N)=O)C(=O)[C@@]2(O)C(O)=C3C(=O)c4c(O)cccc4[C@@](C)(O)[C@H]3C[C@@H]12 [Tetracycline] | – | – | – | ∘ (90% or more cell viability) | 99.31% | 94.3% | 60.1% | 93.7%
